From patent US5216005A, “Immunosuppressive analogues and derivatives of succinylacetone” (priority 1990, dated 1993)

Legend:
[1] = viability of peripheral blood lymphocytes with or without PHA, trypan blue exclusion; format: cell-based, human; details: human, peripheral blood lymphocytes; for viability at 2200 µM: 2.2 mM; for viability at 6700 µM: 6.7 mM; for viability at 20000 µM: 20 mM
Experimental: (§1) Viability was determined using the trypan blue exclusion method well known in the art. […] The assays were conducted in duplicate wherein peripheral blood lymphocytes were isolated from two separate individuals, and then treated with or without phytohemagglutinin in the presence of various concentrations of the appropriate succinylacetone derivative.

[2] = tested on: peripheral blood lymphocytes; test: as above; format: cell-based, human
Experimental: as §1

COC(=O)CCC(=O)CC(C)=O [Succinylacetone Methyl Ester, methyl 4-6-dioxoheptanoate]
viability at 733 µM ([1]; first individual, (-) PHA): 96% | viability at 2200 µM ([1]; first individual, (-) PHA): 94% | viability at 6700 µM ([1]; first individual, (-) PHA): 7% | viability at 20000 µM ([1]; first individual, (-) PHA): 0% | viability at 3 µM ([1]; second individual, (+) PHA): 100% | viability at 9 µM ([1]; second individual, (+) PHA): 100% | viability at 27 µM ([1]; second individual, (+) PHA): 94% | viability at 81 µM ([1]; second individual, (+) PHA): 98% | viability at 244 µM ([1]; second individual, (+) PHA): 96% | viability at 733 µM ([1]; second individual, (+) PHA): 94% | viability at 2200 µM ([1]; second individual, (+) PHA): 93% | viability at 6700 µM ([1]; second individual, (+) PHA): 6% | viability at 20000 µM ([1]; second individual, (+) PHA): 0% | viability at 3 µM ([1]; second individual, (-) PHA): 100% | viability at 9 µM ([1]; second individual, (-) PHA): 100% | viability at 27 µM ([1]; second individual, (-) PHA): 100% | viability at 81 µM ([1]; second individual, (-) PHA): 100% | viability at 244 µM ([1]; second individual, (-) PHA): 98% | viability at 733 µM ([1]; second individual, (-) PHA): 95% | viability at 2200 µM ([1]; second individual, (-) PHA): 94% | viability at 6700 µM ([1]; second individual, (-) PHA): 4% | viability at 20000 µM ([1]; second individual, (-) PHA): 0% | viability ([2]; about 6.7 mM): little viability | Cells/ml ([2]; first individual, (+) PHA, 3 μM): 0.48 X 10^6 Cells/ml | Cells/ml ([2]; first individual, (+) PHA, 9 μM): 0.32 X 10^6 Cells/ml | Cells/ml ([2]; first individual, (+) PHA, 27 μM): 0.37 X 10^6 Cells/ml | Cells/ml ([2]; first individual, (+) PHA, 81 μM): 0.4 X 10^6 Cells/ml | Cells/ml ([2]; first individual, (+) PHA, 244 μM): 0.38 X 10^6 Cells/ml | Cells/ml ([2]; first individual, (+) PHA, 733 μM): 0.4 X 10^6 Cells/ml | Cells/ml ([2]; first individual, (+) PHA, 2.2 mM): 0.3 X 10^6 Cells/ml | Cells/ml ([2]; first individual, (+) PHA, 6.7 mM): 0.13 X 10^6 Cells/ml | Cells/ml ([2]; first individual, (-) PHA, 3 μM): 0.60 X 10^6 Cells/ml | Cells/ml ([2]; first individual, (-) PHA, 9 μM): 0.36 X 10^6 Cells/ml | Cells/ml ([2]; first individual, (-) PHA, 27 μM): 0.60 X 10^6 Cells/ml | Cells/ml ([2]; first individual, (-) PHA, 81 μM): 0.37 X 10^6 Cells/ml | Cells/ml ([2]; first individual, (-) PHA, 244 μM): 0.35 X 10^6 Cells/ml | Cells/ml ([2]; first individual, (-) PHA, 733 μM): 0.34 X 10^6 Cells/ml | Cells/ml ([2]; first individual, (-) PHA, 2.2 mM): 0.36 X 10^6 Cells/ml | Cells/ml ([2]; first individual, (-) PHA, 6.7 mM): 0.15 X 10^6 Cells/ml | Cells/ml ([2]; second individual, (+) PHA, 3 μM): 0.50 X 10^6 Cells/ml | Cells/ml ([2]; second individual, (+) PHA, 9 μM): 0.50 X 10^6 Cells/ml | Cells/ml ([2]; second individual, (+) PHA, 27 μM): 0.40 X 10^6 Cells/ml | Cells/ml ([2]; second individual, (+) PHA, 81 μM): 0.55 X 10^6 Cells/ml | Cells/ml ([2]; second individual, (+) PHA, 244 μM): 0.52 X 10^6 Cells/ml | Cells/ml ([2]; second individual, (+) PHA, 733 μM): 0.39 X 10^6 Cells/ml | Cells/ml ([2]; second individual, (+) PHA, 2.2 mM): 0.42 X 10^6 Cells/ml | Cells/ml ([2]; second individual, (+) PHA, 6.7 mM): 0.24 X 10^6 Cells/ml | Cells/ml ([2]; second individual, (-) PHA, 3 μM): 0.5 X 10^6 Cells/ml | Cells/ml ([2]; second individual, (-) PHA, 9 μM): 0.51 X 10^6 Cells/ml | Cells/ml ([2]; second individual, (-) PHA, 27 μM): 0.43 X 10^6 Cells/ml | Cells/ml ([2]; second individual, (-) PHA, 81 μM): 0.53 X 10^6 Cells/ml | Cells/ml ([2]; second individual, (-) PHA, 244 μM): 0.46 X 10^6 Cells/ml | Cells/ml ([2]; second individual, (-) PHA, 733 μM): 0.48 X 10^6 Cells/ml | Cells/ml ([2]; second individual, (-) PHA, 2.2 mM): 0.42 X 10^6 Cells/ml | Cells/ml ([2]; second individual, (-) PHA, 6.7 mM): 0.23 X 10^6 Cells/ml
